Among the data in paper PMC10943337 (Heliyon, 2024) are IC50 values, retold here.

The test has as its target α-glucosidase (EC3.2.1.20). Briefly: p-nitrophenyl-d-glucopyranoside hydrolysis, absorbance at […] nm, pH […] °C. It counts as biochemical, Saccharomyces cerevisiae. The following applies: read-out: IC50 μM.

Turning to `COc1c(-c2ccc(O)c(O)c2)oc2c(O)c(O)ccc2c1=O` [compound 1, 2-(3,4-dihydroxyphenyl)-7,8-dihydroxy-3-methoxy-4H-chromen-4-one], the IC50 was found to be 45.9 ± 1.98 µM.

What is called IC50 is the concentration that gives 50% inhibition.
